Measured values taken from patent US4113864A (priority 1967, dated 1978).
Converted amounts (≈) assume the structure as drawn. Read-outs that look alike come from different tables or passages of the source.

Key:
[1] = tested on: carmine mites (Tetranychus terarius Linne); assay: Test Example 16: leaf dipping test on carmine mites, mortality after 48 hours; format: in vivo; conditions: wettable powder, leaf dip 1 minute
Protocol: Mottled kidney bean plants at the 2 leaves-stage, which had elapsed 20 days after sowing, were parasitized with a large number of carmine mites (Tetranychus terarius Linne). The leaves of said plants parasitized with the mites were individually dipped for 1 minute in each of solutions prepared by diluting with water the present compounds (35) to (37), (41) to (44) and (46) to (56) in the form of wettable powders. Subsequently, water was added so as not to wither the leaves. After 48 hours, the alive and dead of the mites were observed.

[2] = tested on: Adzuki bean weevils (Callosobruchus chinensis Linne); format: in vivo; conditions: emulsifiable concentrate; dip 1 minute; after 24 hours
[3] = tested on: carmine mite (Tetranychus teralius Linne); conditions: dust 4 kg/10 ares
[4] = tested on: carmine mite (Tetranychus telarius Linne); conditions: dust 4 kg/10 ares
[5] = tested on: rice steam borers (Chilo suppressalis Walker); assay: Test Example 11: mortality of rice stem borers on sprayed rice plants; format: in vivo; conditions: diluted 2,000 times, 6 cc. per pot, wettable powder
From the text: (§1) Rice plants at the tillering stage were individually grown in Wagner pots. Onto the rice plants were adhered and encroached eggs of rice steam borers (Chilo suppressalis Walker) immediately before hatching. After 3 days, the rice plants were individually sprayed with each 6 cc. per pot of solutions prepared by diluting with water to 2,000 times the present compounds (11), (14), (15) and (31) in the form of wettable powders.

[6] = tested on: rice blast fungi (Pyricularia oryzae); format: in vivo
[7] = tested on: carmine mites (Tetranychus telarius Linne); assay: Test Example 7: leaf dipping test on carmine mites, mortality after 48 hours; format: in vivo; conditions: wettable powder, leaf dip 1 minute
Protocol: Mottled kidney bean plants at the 2 leaves-stage, which had elapsed 20 days after sowing were parasitized with a large number of carmine mites (Tetranychus telarius Linne). […] Subsequently, water was added so as not to wither the leaves. After 48 hours, the alive and dead of the mites were observed.

[8] = tested on: carmine mites (Tetranychus terarius Linne); conditions: diluted 2,000 times; 100 Kg/10 ares; field; after 3 days
[9] = tested on: carmine mite (Tetranychus telarius Linne); assay: whole plant or invertebrate; conditions: in Phaseolus vulgaris
[10] = tested on: rice blast fungi (Pyricularia orysae); format: in vivo
[11] = tested on: rice stem borers (Chilo suppressalis Walker); assay: Test Example 4: mortality of rice stem borers on sprayed rice plants; format: in vivo; conditions: diluted 2,000 times; 6 cc. per pot; wettable powder; 4320 min
Protocol: A rice plant at the tillering stage was grown in a Wagner pot. Onto the rice plant were adhered and encroached eggs of rice stem borers (Chilo suppressalis Walker) immediately before hatching. After 3 days, the rice plant was sprayed with 6 cc. per pot of a solution prepared by diluting with water to 2,000 times the present compound (2) in the form of a wettable powder.

[12] = tested on: rice stem borers (Chilo suppressalis Walker); assay: Test Example 20: mortality of rice stem borers on sprayed rice plants; format: in vivo; conditions: diluted 2,000 times; 6 cc. per pot; wettable powder; after additional 5 days
From the text: as §1, with “stem” for “steam”, “(58) to (62), (65), (68), (85), (88), (96), (104), (107), (109), (110)” for “(11), (14), (15)”, “(112)” for “(31)”

[13] = tested on: carmine mites (Tetranychus telarius Linne); assay: whole plant or invertebrate; conditions: in Phaseolus vulgaris
[14] = tested on: carmine mites (Tetranychus terarius Linne); assay: whole plant or invertebrate; conditions: in Glycine max, 72 h, read-out: Mortality (%) (average of 2 sections)
[15] = tested on: northern house mosquitoes (Culex pipiens pallens Coquillett); assay: whole plant or invertebrate; format: in vivo; conditions: granules in water, after 24 hours
From the text: Well water was charged into a 500 cc. beaker. Into the water, full grown larvae of northern house mosquitoes (Culex pipiens pallens Coquillett) were liberated, and the present compounds (12), (16), (17), (23), (25), (26), (27), (29), (30), (85), (87), (88), (89), (94), (95), (96), (97), (100), (102), (103), (104), (105), (106), (107), (108), (109) and (110) in the form of granules were individually charged.

[16] = tested on: Small brown plant hopper (Laoclelphex striatellus Fallen); assay: Test Example 15: insecticidal effects on small brown plant hopper; format: in vivo, Laodelphax striatellus Fallen; conditions: rice seedlings dipped 1 minute in emulsion; after 24 hours
Protocol: Insecticidal effects on Small brown plant hopper (Laoclelphex striatellus Fallen)
Rice seedlings (15-20 cm. in height), which had elapsed 15 days after germination, were individually dipped for 1 minute in emulsions prepared by diluting with water to given concentrations the present compounds (10), (14), (19), (23), (31), (85), (88), (90), (93), (94), (103), (104), (106) and (109) in the form of emulsifiable concentrates. After air-drying, the rice seedlings were individually charged into test glass tubes, and 20-30 plant hoppers (Laodelphax striatellus Fallen) were liberated in each tube, and the tube was covered with gauze.

In the case of “O-ethyl-O-4-chlorophenyl-3-sec-butyl phosphorothiolate [(44)]”, the “LC50 (times diluted)” value [1] is reported as 330,000 times diluted.

For “O-ethyl-O-2,4-dichlorophenyl-S-allyl phosphorothiolate [(49)]”, the “LC50 (times diluted)” value [1] was 60,000 times diluted.

For “O-ethyl-O-3,4-dimethylphenyl-S-2-phenylethyl-phosphorothiolate [(9)]”, the “LC50 (diluted times)” value [2] was 200,000 diluted times, the “Mortality (%)” value ([3]; After 2 days) was 100% and the “Mortality (%)” value ([3]; After 5 days) was 99.2%. For the same compound, the “Mortality (%)” value ([3]; After 9 days) was 83.4% and the “Mortality (%)” value ([3]; After 13 days) was 53.4%.

In the case of “O-ethyl-O- 3-methylphenyl-S-(sec)-butyl-phosphorothiolate [(42)]”, the “LC50 (times diluted)” value [1] is reported as 1,100,000 times diluted.

“O-ethyl-O-phenyl-S-2-phenylethyl-phosphorothiolate [(4)]” showed a Mortality (%) ([4]; After 2 days) of 100%, a Mortality (%) ([4]; After 5 days) of 92.4% and a Mortality (%) ([4]; After 9 days) of 81.3%. The Mortality (%) ([4]; After 13 days) was 70.3%.

With “O-ethyl-O- 4-chlorophenyl-S-2-phenylethyl phosphorothiolate [(11)]” the “Mortality (%)” value ([5]; 4320 min) was 96.3%, the “Curative value” ([6]; in vivo) was 87.1 and the “LC50 (diluted times)” value [7] was 256,000 diluted times. The “LC50 (diluted times)” value [2] was 105,000 diluted times.

“O-ethyl-O- 4-methylphenyl-S-(sec)-butyl-phosphorothiolate [(34)]” was tested, and the “Mortality (%) (average of 2 sections)” value [8] was 96.4% and the “Curative value” ([6]; in vivo) was 97.2.

With “O-ethyl-O-4-chlorophenyl-S-2-ethylthio-ethyl-phosphorothiolate [(51)]” the “LC50 (times diluted)” value [1] was 1,200,000 times diluted.

In the case of “O-ethyl-O- 4-methylphenyl-S-propargyl phosphorothiolate [(35)]”, the “LC50 (times diluted)” value [1] is reported as 12,000,000 times diluted.

For “O-ethyl-O-2,4-dichlorophenyl-S-sec-butyl-phosphorothiolate [(50)]”, the “LC50 (times diluted)” value [1] was 90,000 times diluted.

`CCOP(=O)(Oc1ccccc1)SCCSc1ccccc1` (stereo not drawn) [(5), O-ethyl-O-phenyl-S-2-phenylthioethyl-phosphorothiolate] was tested, and the mortality at 4 kg/10 ares ([9]; 48 h) was 100%, the mortality at 4 kg/10 ares ([9]; 120 h) was 98.8% and the mortality at 4 kg/10 ares ([9]; 216 h) was 83.4%. The mortality at 4 kg/10 ares ([9]; 312 h) was 34.4%.

In the case of `CCCCSP(=O)(OCC)Oc1ccccc1` (stereo not drawn) [(1), O-ethyl-O-phenyl-S-n-butyl phosphorothiolate], the Curative value ([10]; 500 p.p.m.) is reported as 80.1.

With “O-ethyl-O- 4-chlorophenyl-S-allylphosphorothiolate [(43)]” the “LC50 (times diluted)” value [1] was 11,000 times diluted.

`COP(=S)(OC)Oc1ccc([N+](=O)[O-])c(C)c1` [O,O-dimethyl-O-3-methyl-4-nitrophenyl phosphorothioate] was tested, and the Mortality (%) [11] was 94.3%, the mortality at 2000 fold dilution ([5]; Chilo suppressalis, 72 h) was 94.3% and the “Mortality (%)” value [12] was 94.3%.

In the case of “O-ethyl-O-2-chlorophenyl-S-2-phenylethyl phosphorothiolate [(13)]”, the “LC50 (diluted times)” value [7] is reported as 1,000,000 diluted times, the “Mortality (%)” value ([3]; After 2 days) is reported as 100% and the “Mortality (%)” value ([3]; After 5 days) is reported as 95.3%. The “Mortality (%)” value ([3]; After 9 days) was 92.1% and the “Mortality (%)” value ([3]; After 13 days) was 61.2%.

“O-ethyl-O- 3,4-dimethylphenyl-s-(sec)-butyl phosphorothiolate [(37)]” was tested, and the “LC50 (times diluted)” value [1] was 50,000 times diluted.

`CCCSP(=O)(OCC)Oc1cc(C)c(Cl)c(C)c1` (stereo not drawn) [(87)] gave a mortality at 4 kg/10 ares ([13]; 48 h) of 100%, a mortality at 4 kg/10 ares ([13]; 120 h) of 93.7% and a mortality at 4 kg/10 ares ([13]; 216 h) of 82.3%. It also gave a mortality at 4 kg/10 ares ([13]; 312 h) of 31.6%, a mortality at 2000 fold dilution [14] of 90.6% and an LC50 ([15]; Culex pipiens, read-out: LC50) of 0.054 µg/mL (≈ 0.167 µM).

`CCOC(=O)C(O)(c1ccc(Cl)cc1)c1ccc(Cl)cc1` [Ethyl 4,4'-dichlorobenzilate, reference compound] was tested, and the “LC50 (diluted times)” value [7] was 100,000 diluted times.

“O-ethyl-O-phenyl-S-allylphosphorothiolate [(3)]” gave a Curative value ([10]; in vivo) of 98.6.

For “O-ethyl-O-3,5-dimethyl-4-chlorophenyl-S-sec-butyl phosphorothiolate [(54)]”, the “LC50 (times diluted)” value [1] was 70,000 times diluted.

With “O-ethyl-O-2,4-dichlorophenyl-S-N-phthalimidemethyl-phosphorothiolate [(53)]” the “LC50 (times diluted)” value [1] was 1,000,000 times diluted.

“Phenylmercuric acetate [reference compound]” was tested, and the Curative value ([10]; in vivo) was 47.6 and the “Curative value” ([6]; in vivo) was 47.7.

`C=CCSP(=O)(OCC)Oc1ccc(C)cc1` (stereo not drawn) [(33), O-ethyl-O-4-methylphenyl-S-allyl-phosphorothiolate] showed a mortality at 2000 fold dilution [14] of 90.7%.

In the case of “O-ethyl-O- 3-methylphenyl-S-allyl-phosphorothiolate [(41)]”, the “LC50 (times diluted)” value [1] is reported as 1,100,000 times diluted.

“O-ethyl-O- 3-methyl-4-chlorophenyl-S-2-phenylethyl-phosphorothiolate [(12)]” was tested, and the “Mortality (%) (average of 2 sections)” value [8] was 100.0%, the LC50 [15] was 0.02 p.p.m and the “LC50 (diluted times)” value [2] was 180,000 diluted times.

For “O-ethyl-O-3,4-dimethyl-S-2-phenylthioethylphosphorothiolate [(52)]”, the “LC50 (times diluted)” value [1] was 900,000 times diluted.

“O-ethyl-O- 4-(tert)-butylphenyl-S-allyl phosphorothiolate [(36)]” was tested, and the “LC50 (times diluted)” value [1] was 540,000 times diluted.

With “O-ethyl-O-phenyl-S-sec-butyl phosphorothiolate [(55)]” the “LC50 (times diluted)” value [1] was 90,000 times diluted.

“O-ethyl-O-2-chlorophenyl-S-sec-butyl-phosphorothiolate [(47)]” was tested, and the “LC50 (times diluted)” value [1] was 15,000 times diluted.

In the case of `CCOC(=O)CC(SP(=S)(OC)OC)C(=O)OCC` (stereo not drawn) [0,0-Dimethyl-S-(1,2-dicarboethoxyethyl) phosphorodithioate, reference compound], the “LC50 (diluted times)” value [2] is reported as 8,800 diluted times.

`CCOP(=S)(OCC)SC1OCCOC1SP(=S)(OCC)OCC` (stereo not drawn) [2,3-p-Dioxane S,S-bis-(0,0-diethyl phosphorodithioate), reference compound] was tested, and the “LC50 (diluted times)” value [7] was 1,000,000 diluted times.

In the case of `CCOP(=O)(OCC)SCc1ccccc1` [0,0-Diethyl-S-benzyl-phosphorothioate, reference compound], the Curative value ([10]; 500 p.p.m.) is reported as 69.1 and the “Curative value” ([6]; 1,000 p.p.m.) is reported as 78.6.

For “O-ethyl-O- 3-methylphenyl-S-2-phenylethyl phosphorothiolate [(10)]”, the “LC50 (diluted times)” value [7] was 6,000,000 diluted times, the “LC50 (times diluted)” value [16] was 512,000 times diluted and the “LC50 (diluted times)” value [2] was 300,000 diluted times.

With “O-ethyl-O-2-chlorophenyl-S-propargyl phosphorothiolate [(48)]” the “LC50 (times diluted)” value [1] was 150,000 times diluted.

“O-ethyl-O-2-chlorophenyl-S-allyl-phosphorothiolate [(46)]” was tested, and the “LC50 (times diluted)” value [1] was 80,000 times diluted.
